In general, Kd refers to the concentration at which binding is half-saturated. Lower therefore signals a tighter complex.

The text below walks through data of paper PMC11791359, “A select inhibitor of MORC2 encapsulated by chimeric membranecoated DNA nanocage target alleviation TNBC progression” (Materials Today Bio, 2025).

Test [1] deals with phosphotyrosine STAT3 (p-STAT3). In words: Western blot of p-STAT3 in TNBC cells. In kind it is cell-based, human. As for the experimental part:
Disruption of the IL6/STAT3 signaling pathway can induce cell cycle arrest and apoptosis, which may contribute to the tumor cell death observed in our study following Angoline treatment. Thus, WB analysis was performed to verify our hypothesis. […] These changes were also observed in tumor-bearing mice treated with Angoline (Fig. 3G). Thus, Angoline may also killing the TNBC cells by inhibiting the IL6/STAT3 signaling pathway.
TNBC cells were inoculated in 10-cm plates with 50–60% confluence and incubated for 24 hours. Then, after cleaning the cells with PBS three times, the total proteins of cells were harvested by adding the RIPA lysis buffer and 1% Phenylmethanesulfonyl Fluoride (PMSF) into the plates and scraping off the lysed cells. The total proteins were calculated by the BCA protein estimation assay and were isolated by 10% SDS‒PAGE. The protein was transferred onto the PVDF membrane and then blocked with 5% skim milk powder for 2 hours. The protein bands were probed with corresponding antibodies and incubated at 4 °C overnight. Then, the secondary antibodies were added and incubated 1 h at room temperature. Finally, the membranes were detected by the enhanced chemiluminescence detection system.
On the technique in general: A western blot detects proteins with antibodies after separation by electrophoresis.

Test [2] has as its target T1, MORC2 protein (Homo sapiens, UniProt Q9Y6X9).
T1 construct: 6xHis; made in house; host or cells: Escherichia coli BL21
T1 sequence (Q9Y6X9 1-1032): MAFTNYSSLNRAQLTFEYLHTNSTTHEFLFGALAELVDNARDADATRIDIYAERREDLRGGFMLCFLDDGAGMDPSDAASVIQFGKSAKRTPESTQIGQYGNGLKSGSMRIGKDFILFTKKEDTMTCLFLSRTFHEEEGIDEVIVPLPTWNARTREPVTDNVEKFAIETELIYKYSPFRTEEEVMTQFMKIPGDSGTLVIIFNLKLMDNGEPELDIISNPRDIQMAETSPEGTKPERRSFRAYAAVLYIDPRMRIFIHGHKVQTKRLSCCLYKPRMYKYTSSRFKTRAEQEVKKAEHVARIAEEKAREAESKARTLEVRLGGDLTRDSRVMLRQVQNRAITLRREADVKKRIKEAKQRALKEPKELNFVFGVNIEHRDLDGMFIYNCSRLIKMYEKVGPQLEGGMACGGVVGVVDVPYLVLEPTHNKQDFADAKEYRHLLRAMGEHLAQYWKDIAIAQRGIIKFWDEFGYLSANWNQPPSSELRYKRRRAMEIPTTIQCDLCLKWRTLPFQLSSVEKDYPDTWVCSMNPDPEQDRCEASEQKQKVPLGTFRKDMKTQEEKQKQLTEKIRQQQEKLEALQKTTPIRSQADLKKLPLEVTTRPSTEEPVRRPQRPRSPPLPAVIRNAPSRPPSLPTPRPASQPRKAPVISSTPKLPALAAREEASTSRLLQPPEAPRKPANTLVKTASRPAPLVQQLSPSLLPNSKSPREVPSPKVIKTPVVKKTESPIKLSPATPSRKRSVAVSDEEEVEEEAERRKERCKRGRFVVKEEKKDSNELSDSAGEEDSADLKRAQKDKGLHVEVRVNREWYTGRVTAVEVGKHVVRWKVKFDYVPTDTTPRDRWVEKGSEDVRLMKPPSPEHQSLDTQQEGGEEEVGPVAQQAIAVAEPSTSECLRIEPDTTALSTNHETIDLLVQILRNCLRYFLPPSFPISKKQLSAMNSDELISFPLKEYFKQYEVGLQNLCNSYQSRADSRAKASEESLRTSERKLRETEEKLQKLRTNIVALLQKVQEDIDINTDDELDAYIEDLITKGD
As to the kind of experiment: SPR molecular interaction, MORC2 protein (WT). It is filed as binding. As for the experimental part: Topscience biological small molecule compound library was used to virtually screen out the potential small molecules by computer molecular docking. […] Then, a series of experiments were conducted to evaluate the binding ability between small molecule compounds and MORC2 protein. First, the optimal conditions for purification of MORC2 protein were investigated by univariate optimization method. Protein induction experiments were conducted under varying concentrations of IPTG (0 mM, 0.1 mM, 0.2 mM, 0.5 mM, 0.8 mM, 1 mM), temperature gradients (16 °C, 22 °C, 29 °C, 37 °C), and induction time (3 h, 6 h, 8 h, 10 h, 12 h). Finally, at 0.1 mM IPTG concentration, especially at 22 °C for 8 h, MORC2 protein expression reached the optimal level, which was verified by Coomassie blue staining (Figs. S7A–C). We cleared the other proteins by Binding/Wash Buffer 3 times and eluted the MORC2 protein with imidazole at 40 mM concentration to extract the high purity MORC2 protein (Fig. S7D). MORC2 protein with high purity was obtained according to the above conditions and verified by Coomassie blue staining (Fig. S7E). Then, surface plasmon resonance molecular interaction experiment was performed to detect the binding ability between small molecule compounds and MORC2 protein. […] Also, the binding strength between MORC2 and Angoline was dose-dependent on the concentration of Angoline (Fig. 2C). […]

In test [3] the test system is MDA-MB-231 cells. As to the kind of experiment: CCK8 assay, MDA-MB-231. In kind it is cell-based, human. To be noted: CCK8, MDA-MB-231, 24 h. As for the experimental part:
MDA-MB-231 and MDA-MB-468 cells were inoculated on 96-well plates with 5×10^3 cells per well, and then different small molecule drugs were added according to study requirements after the cell culture reached the appropriate density. Twenty-four hours after treatment, CCK-8 reagent was added to each well and incubated for 2 hours. Then, the absorbance of each well was measured at 450 nm using an enzyme-labeler to calculate the relative survival rate of cells.

“Also recorded” adds a separate entry of the source.

Regarding `COc1ccc2c(c1OC)C(OC)N(C)c1c-2ccc2cc3c(cc12)OCO3` (stereo not drawn) [Angoline], the “level of p-STAT3” value in test [1] was “significantly reduced”. This compound returned a Kd in test [2] of 23.3 nM. In addition, the “killing effect / inhibitory effect on cell viability” value in test [3] is “strongest killing effect; also recorded: progressively increased with higher concentrations”.
